Experiments:
Plasmodium falciparum [1] = assay: ST_JUDE: Plasmodium falciparum K1 EC50 (uM) as measured by SYBR green dye; assay type: functional, organism-based
Plasmodium falciparum [2] = assay: ST_JUDE: Plasmodium falciparum 3D7 EC50 (uM) as measured by SYBR green dye; assay type: functional, organism-based

O=C(O)c1ccc(CN2C(=O)c3ccccc3C2=O)cc1
EC50 (Plasmodium falciparum [1]): > 15 µM | EC50 (Plasmodium falciparum [2]): > 15 µM

CCCOc1cc(O)c(-c2[nH]nc(C)c2Oc2ccccc2)cc1CC
EC50 (Plasmodium falciparum [1]): 2.1 µM | EC50 (Plasmodium falciparum [2]): 3.83 µM

COc1ccc(OC)c(C2CC(=O)C3=C(C2)NC(=O)CC3c2ccc(OC)c(OC)c2)c1 (stereo unspecified)
EC50 (Plasmodium falciparum [1]): 3.79 µM | EC50 (Plasmodium falciparum [2]): 2.41 µM

Cc1c(C=O)c2ccccc2n1CC(=O)Nc1cccc(I)c1
EC50 (Plasmodium falciparum [1]): 3.03 µM | EC50 (Plasmodium falciparum [2]): 3 µM

Oc1c(C(Nc2ccccn2)c2ccc(Br)cc2)ccc2cccnc12 (stereo unspecified)
EC50 (Plasmodium falciparum [1]): 2.84 µM | EC50 (Plasmodium falciparum [2]): 1.22 µM

CCOc1ccc(-c2nonc2NC(=O)c2ccccc2Cl)cc1OCC
EC50 (Plasmodium falciparum [1]): 0.538 µM | EC50 (Plasmodium falciparum [2]): 0.49 µM

CCOc1ccc2nc(C)cc(Nc3cccc(OC)c3)c2c1
EC50 (Plasmodium falciparum [1]): 6.76 µM | EC50 (Plasmodium falciparum [2]): 3.41 µM

CCc1ccc(C2c3c(-c4ccccc4O)n[nH]c3C(=O)N2CCCOC(C)C)cc1 (stereo unspecified)
EC50 (Plasmodium falciparum [1]): > 15 µM | EC50 (Plasmodium falciparum [2]): > 15 µM

Cc1ccc2c(c1)c1c(n2CC(O)CNC2CCCC2)CCCC1 (stereo unspecified)
EC50 (Plasmodium falciparum [1]): 1.72 µM | EC50 (Plasmodium falciparum [2]): 2.9 µM

CC(C)Nc1c2ccccc2nc2ccccc12
EC50 (Plasmodium falciparum [1]): 4.07 µM | EC50 (Plasmodium falciparum [2]): 2.54 µM

O=C(N1CCCN(C(=O)C(Cl)(Cl)Cl)CC1)C(Cl)(Cl)Cl
EC50 (Plasmodium falciparum [1]): 2.23 µM | EC50 (Plasmodium falciparum [2]): 3.42 µM

CN(C)CCNCCCOc1ccc(Cl)cc1Cc1ccccc1
EC50 (Plasmodium falciparum [1]): > 15 µM | EC50 (Plasmodium falciparum [2]): 5.82 µM

CCCOc1ccc(CSC2=NCCN2)cc1[N+](=O)[O-]
EC50 (Plasmodium falciparum [1]): 6.96 µM | EC50 (Plasmodium falciparum [2]): 6.86 µM

Cc1nnc(NCCN2CCOCC2)nc1O
EC50 (Plasmodium falciparum [1]): > 15 µM | EC50 (Plasmodium falciparum [2]): > 15 µM

CCc1cc(-c2[nH]ncc2-c2ccc(F)cc2)c(O)cc1OC
EC50 (Plasmodium falciparum [1]): > 15 µM | EC50 (Plasmodium falciparum [2]): > 15 µM

O=C1C(Nc2cccc(F)c2)=C(N2CCCCC2)C(=O)c2ccccc21
EC50 (Plasmodium falciparum [1]): 0.471 µM | EC50 (Plasmodium falciparum [2]): 0.261 µM

O=C(CCNc1ccc(Oc2ccccc2)cc1)c1ccco1
EC50 (Plasmodium falciparum [1]): > 15 µM | EC50 (Plasmodium falciparum [2]): > 15 µM

CCCCn1nnnc1NCc1cc(Cl)c(OC)c(OC)c1
EC50 (Plasmodium falciparum [1]): > 15 µM | EC50 (Plasmodium falciparum [2]): 5.86 µM

CO/C(O)=C1\C(C)=NC2=C(C(=O)CC(c3ccccc3Cl)C2)C1c1ccc(OC)c(OC)c1 (stereo unspecified)
EC50 (Plasmodium falciparum [1]): 9.39 µM | EC50 (Plasmodium falciparum [2]): > 15 µM

COC(=O)C1=C(C(=O)OC)C2(OC1c1cccc(F)c1)C(=O)c1ccccc1C2=O (stereo unspecified)
EC50 (Plasmodium falciparum [1]): > 15 µM | EC50 (Plasmodium falciparum [2]): 3.97 µM

Cc1cc(Cl)c(S(=O)(=O)N(C)C)cc1OCC(=O)Nc1ccccc1
EC50 (Plasmodium falciparum [1]): > 15 µM | EC50 (Plasmodium falciparum [2]): > 15 µM

C=CCOC(=O)C1=C(C)N=C(C)/C(=C(\O)OCC=C)C1c1ccc(OC)c(OC)c1 (stereo unspecified)
EC50 (Plasmodium falciparum [1]): 5.93 µM | EC50 (Plasmodium falciparum [2]): 4.4 µM

CCOc1ccc(/C=c2\sc3n(c2=O)CN(c2cccc(F)c2)CN=3)cc1
EC50 (Plasmodium falciparum [1]): > 15 µM | EC50 (Plasmodium falciparum [2]): > 15 µM

CC(C)(C)CC(C)(C)NCC(O)COc1ccc2c(c1)CCC2 (stereo unspecified)
EC50 (Plasmodium falciparum [1]): 1.22 µM | EC50 (Plasmodium falciparum [2]): 4.42 µM

CCCC(=O)NC(c1ccccc1OC)c1ccc2cccnc2c1O (stereo unspecified)
EC50 (Plasmodium falciparum [1]): 3.43 µM | EC50 (Plasmodium falciparum [2]): 2.2 µM

CN(C)c1ccc(/C=C/c2cc(/C=C/c3ccc(N(C)C)cc3)n3n[n+](C)nc3n2)cc1.[O-][Cl+3]([O-])([O-])[O-]
EC50 (Plasmodium falciparum [1]): 0.514 µM | EC50 (Plasmodium falciparum [2]): 0.641 µM

O=[N+]([O-])c1ccc(S(=O)(=O)N2CCN(C3CCC(c4ccccc4)CC3)CC2)cc1 (stereo unspecified)
EC50 (Plasmodium falciparum [1]): > 15 µM | EC50 (Plasmodium falciparum [2]): > 15 µM

CCCCC(O)(c1ccc(OC)cc1)C(CN1CCCCC1)c1ccccc1 (stereo unspecified)
EC50 (Plasmodium falciparum [1]): 2.73 µM | EC50 (Plasmodium falciparum [2]): 4.6 µM

CCOCCCn1c(=N)c(C(=O)NCc2cccnc2)cc2c(=O)n3cccc(C)c3nc21
EC50 (Plasmodium falciparum [1]): > 15 µM | EC50 (Plasmodium falciparum [2]): > 15 µM

C=CCc1cccc(/C=N/NC(=O)c2cccs2)c1O
EC50 (Plasmodium falciparum [1]): 6.81 µM | EC50 (Plasmodium falciparum [2]): > 15 µM

O=C(Cc1ccccc1)NC(c1ccc(Cl)cc1)c1c(O)ccc2ccccc12 (stereo unspecified)
EC50 (Plasmodium falciparum [1]): > 15 µM | EC50 (Plasmodium falciparum [2]): > 15 µM

CCOC(=O)c1c(NC(=S)NCCc2ccccc2)sc2c1CC(C)(C)OC2
EC50 (Plasmodium falciparum [1]): > 15 µM | EC50 (Plasmodium falciparum [2]): > 15 µM

CC1CCN(Cc2c(O)ccc3ccccc23)CC1
EC50 (Plasmodium falciparum [1]): 0.492 µM | EC50 (Plasmodium falciparum [2]): 0.368 µM

CC(=O)NC(c1ccccc1Cl)c1ccc2cccnc2c1O (stereo unspecified)
EC50 (Plasmodium falciparum [1]): 3.79 µM | EC50 (Plasmodium falciparum [2]): 3.39 µM

COc1cc(/C=C/c2ccc3cccc(OC(C)=O)c3n2)cc(Cl)c1OC
EC50 (Plasmodium falciparum [1]): 6.11 µM | EC50 (Plasmodium falciparum [2]): > 15 µM

CCN1/C(=C/c2sc3ccc(C(=O)OC)cc3[n+]2CC)C=Cc2cc(OC)ccc21
EC50 (Plasmodium falciparum [1]): 0.154 µM | EC50 (Plasmodium falciparum [2]): 0.0668 µM

CC(C)c1ccc(NC(=O)CSc2n[nH]c(-c3ccccc3Cl)n2)cc1
EC50 (Plasmodium falciparum [1]): 4.96 µM | EC50 (Plasmodium falciparum [2]): 4.78 µM

O=C(Nc1ccc2oc(-c3ccc(F)cc3Cl)nc2c1)C(Cl)(Cl)Cl
EC50 (Plasmodium falciparum [1]): > 15 µM | EC50 (Plasmodium falciparum [2]): > 15 µM

CCCCCCCCc1c(C)c(C#N)c2nc3ccccc3n2c1-n1cnc2ccccc21
EC50 (Plasmodium falciparum [1]): > 15 µM | EC50 (Plasmodium falciparum [2]): > 15 µM

Cc1ccc(NC2=NC(=O)CC(C(=O)Nc3ccc(C(C)C)cc3)S2)cc1C (stereo unspecified)
EC50 (Plasmodium falciparum [1]): > 15 µM | EC50 (Plasmodium falciparum [2]): > 15 µM

CCOCc1cc(CN2CCN(c3cccc(C(F)(F)F)c3)CC2)c(O)c2ncccc12
EC50 (Plasmodium falciparum [1]): 1.49 µM | EC50 (Plasmodium falciparum [2]): 1.41 µM

N=C(N)N/N=C/c1ccncc1
EC50 (Plasmodium falciparum [1]): > 15 µM | EC50 (Plasmodium falciparum [2]): 3.49 µM

CCCOc1cc(Br)c(C2NC(S)=NC(c3ccccc3)=C2C(C)=O)cc1OCC (stereo unspecified)
EC50 (Plasmodium falciparum [1]): 4.24 µM | EC50 (Plasmodium falciparum [2]): > 15 µM

CC(C)CN1CCN(Cc2cc(Cl)ccc2O)CC1CCO (stereo unspecified)
EC50 (Plasmodium falciparum [1]): 4.82 µM | EC50 (Plasmodium falciparum [2]): > 15 µM

C[n+]1ccc(C=Cc2ccc(O)cc2)cc1
EC50 (Plasmodium falciparum [1]): 4.01 µM | EC50 (Plasmodium falciparum [2]): 3.97 µM

CCc1nc2sc(C(c3cccc(F)c3)N3CCN(c4ccc(OC)cc4)CC3)c(O)n2n1 (stereo unspecified)
EC50 (Plasmodium falciparum [1]): > 15 µM | EC50 (Plasmodium falciparum [2]): > 15 µM

COc1ccc2c(c1OC)C(=O)N1c3ccccc3N=C(c3ccc(C)cc3)CC21 (stereo unspecified)
EC50 (Plasmodium falciparum [1]): 1.7 µM | EC50 (Plasmodium falciparum [2]): 2.53 µM

CC(=O)N(C1=C(N2CCCC2)C(=O)c2ccccc2C1=O)C1CCCCC1
EC50 (Plasmodium falciparum [1]): 0.399 µM | EC50 (Plasmodium falciparum [2]): 0.28 µM

CCN(CC)CCOC(=O)c1ccc(NC(=O)c2cc3cc4cc(OC)ccc4nc3s2)cc1
EC50 (Plasmodium falciparum [1]): 3.31 µM | EC50 (Plasmodium falciparum [2]): 1.7 µM

CCN(CC)c1ccc(C2NC(=O)NC(O)(C(F)(F)F)C2C(=O)c2cccnc2)cc1 (stereo unspecified)
EC50 (Plasmodium falciparum [1]): 8.42 µM | EC50 (Plasmodium falciparum [2]): 9.06 µM

CCOCCn1/c(=N/C(=O)COc2ccc(Cl)cc2)sc2cc(OCC)ccc21
EC50 (Plasmodium falciparum [1]): > 15 µM | EC50 (Plasmodium falciparum [2]): > 15 µM

CCOC(=O)C1=C(C)N=c2s/c(=C\c3ccc(O)cc3)c(=O)n2C1c1ccc(OC)c(OCC)c1 (stereo unspecified)
EC50 (Plasmodium falciparum [1]): > 15 µM | EC50 (Plasmodium falciparum [2]): 0.77 µM

CCCCCn1c(=N)n(CC(O)COc2cccc(C)c2)c2ccccc21 (stereo unspecified)
EC50 (Plasmodium falciparum [1]): 1.36 µM | EC50 (Plasmodium falciparum [2]): 2.65 µM

CC(C)(C)c1ccc(C(=O)Nc2c3c(nn2-c2ccc([N+](=O)[O-])cc2)CS(=O)(=O)C3)cc1
EC50 (Plasmodium falciparum [1]): 3.09 µM | EC50 (Plasmodium falciparum [2]): 10.6 µM

O=C(Nc1ccccc1-c1ccccc1)C(Cl)(Cl)Cl
EC50 (Plasmodium falciparum [1]): 1.15 µM | EC50 (Plasmodium falciparum [2]): 1.56 µM

COc1ccc(OC)c(NC(=O)C2c3ccccc3C(=O)N(C)C2c2cccs2)c1 (stereo unspecified)
EC50 (Plasmodium falciparum [1]): 4.28 µM | EC50 (Plasmodium falciparum [2]): > 15 µM

CCC(=O)C1=C(c2ccc(F)cc2)N(C(=O)CC)n2cnnc2S1
EC50 (Plasmodium falciparum [1]): > 15 µM | EC50 (Plasmodium falciparum [2]): > 15 µM

O=C(CSc1nccn1Cc1ccccc1Cl)Nc1cc(C(F)(F)F)ccc1Cl
EC50 (Plasmodium falciparum [1]): 1.39 µM | EC50 (Plasmodium falciparum [2]): > 15 µM

CCN(CC)c1ccc(/C=N/NC(=O)c2cccc(NC(=O)c3ccc(C)cc3)c2)c(O)c1
EC50 (Plasmodium falciparum [1]): > 15 µM | EC50 (Plasmodium falciparum [2]): 5.46 µM

O=[N+]([O-])c1cc(C(F)(F)F)ccc1NCCCNS(=O)(=O)c1ccc(Cl)cc1
EC50 (Plasmodium falciparum [1]): > 15 µM | EC50 (Plasmodium falciparum [2]): > 15 µM

CCCCc1ccc(NC(=O)CSc2nc3c(c(=O)n2C)SC(C)C3)cc1 (stereo unspecified)
EC50 (Plasmodium falciparum [1]): 2.05 µM | EC50 (Plasmodium falciparum [2]): 2.93 µM

CCO/C(O)=C1\C(C)=NC2=C(C(=O)CC(c3ccc(Cl)cc3)C2)C1c1cc(F)ccc1F (stereo unspecified)
EC50 (Plasmodium falciparum [1]): > 15 µM | EC50 (Plasmodium falciparum [2]): > 15 µM

CCCCN(C)Cc1c(O)ccc2c(=O)c(Oc3ccccc3OCC)c(C(F)(F)F)oc12
EC50 (Plasmodium falciparum [1]): 1.47 µM | EC50 (Plasmodium falciparum [2]): 2 µM

Reference: ChEMBL document CHEMBL1154198, “Chemical genetics of Plasmodium falciparum” (Nature, 2010)
